The record followed here is patent US10285963B2, “Combination of metabolic bio-energetic and nutra-epigentic regulators, nutraceutical compounds in conventional and nanotechnologies combination to revert and prevent the chronic damage accelerated cellular senescence produced by diabetes and other degenerative chronic complex diseases” (priority 2015, dated 2019).

The LC50 is the concentration that kills 50% of the test population.

The test system of one data set is Artemia salina nauplii. As to the kind of experiment: Artemia salina nauplii toxicity assay. The conditions noted are these: for toxicity expressed as percent mortality of A. salina nauplii: any of the tested concentrations (62.5-1000 ppm). The source says:
Artemia salina is a crustacean sensitive to a wide range of compounds with biological activity and very different chemical structures. Michael et al. (Michael A. S. et al in Science, 1956, 123: 464) and Vanhaecke et al. (Vanhaecke et al in Ecotoxicol Environ Saf 1981, 5:382) proposed its use for toxicity testing. It is a test that allows conducting practically and economically toxicity studies of different nature substances. […] This model is accepted by the FDA (Food Drug Administration) and EPA (Environmental Protection Agency in 2002), as a test for evaluating the toxicity and ecotoxicity of pharmaceutical and/or food products.
In an Artemia salina hatcher, 0.5 g cysts of Artemia salina were hatched in artificial seawater at 37 g/L at a temperature of 27° C. with constant aeration for 24 h. In every 5 wells out of a 96-well plate, 0.1 mL of artificial seawater (37 g/L) was applied with a single-channel pipette with ten nauplii, separated from the hatcher and counted one by one to achieve an exact separation of 10 nauplii. […] Using a multichannel micropipette, 0.1 mL of the solutions prepared in the plate were added, achieving a final concentration of 62.5, 125, 250, 500 and 1000 ppm per five wells of nauplii. For blank samples, 10 untreated nauplii were placed in a 0.2 mL volume of artificial seawater (37 g/L). The microplate was incubated at 25° C. for 24 h. After incubation period, A. salina nauplii alive and dead were counted with a stereoscopic microscope and % mortality was determined. Toxicity was expressed as percent mortality of A. salina nauplii: 0-10% non-toxic, moderately toxic 11-50%, 51-90% highly toxic and 100% extremely toxic, considering the Gualdron et al, scale. (Gualdron R. et al in Chem Rev. Col. Farm, 1997, 26: 15 to 19). […] Data were analyzed with the Statistical Package Graph Pad Prism version 6, by analysis of variance (ANOVA) test and Tukey multiple comparisons (p<0.05).

Data set [1] deals with human peripheral blood mononuclear cells (lymphocytes) DNA. The settings on record: 0.1 mM, positive control, 24 h.
Description: By using culture medium cell concentration was adjusted to 1×10^6 cells/mL. Cells obtained were seeded in Eppendorf vials at a density of 3×10^4 cells/mL and incubated at 37° C. and 5% CO2 for 24 hours to stabilize. […] Cells were incubated for 24 h to be later precipitated by centrifugation at 1200 rpm for 5 min and treated with 0.1 mL trypsin (0.25%) for 3 min at 37° C. and 5% CO2. Cells were resuspended in 1 mL of RPMI 1640 medium and centrifuged again at 1200 rpm for 5 min, the supernatant was discarded and the cells were incubated with 1 mL of lysis solution (NaCl 2.5 M, Na2EDTA 100 mM, Tris HCl 10 mM, and 1% Triton) at 4° C. for 24 h. After 24 h, vials were centrifuged at 1200 rpm at 4° C. […] The generated images were acquired with a high resolution digital camera (FIG. 4, above) and analyzed with ImageQuant TL v8.1 software. The area of the comet head representing intact DNA was quantified by densitometric analysis and plotted as percentage versus the negative control (culture medium) (FIG. 4, in the middle). The tail of the comet representing the damaged DNA was measured in millimeters and represented as the percentage of the positive control (H2O2). Data were expressed as mean±mean standard deviation (FIG. 4, below). Data obtained were analyzed by analysis of variance (ANOVA) using in case of any difference a post-hoc Tukey test using GraphPad Prism v6.0 software, at p<0.05.
In data set [2] the test system is Vero cell line (African green monkey kidney cells). The experiment in a line: MTT microdilution assay, Vero. In kind it is cell-based. The source says: (§1) MTT method, based on reduction of 3-(4,5-dimethylthiazol-2-yl)-2,5-diphenyltetrazolium bromide, is an assay that reflects the metabolic function of cells. MTT is a yellow dye reduced to formazan (blue dye) by mitochondrial dehydrogenases, which are part of the respiratory chain of viable cells (Hwa et al., 2015). It is used in a quantitative colorimetric microdilution method applied for determination of survival and proliferative capacity of mammalian cells (Mosmann T. in J. Immunol Methods, 1983, 65 (1-2): 55). […]
(§2) Dulbecco's modified Eagle Minimum Essential culture Medium/F12 (DMEM/F12) was used, supplemented with 10% fetal bovine serum (FBS) and 1 mL of a mixture of antibiotics (200,000 IU of penicillin and 0.5 g streptomycin). […] Subsequently MTT solution was removed, retaining the formed formazan salts, then they added 0.1 mL of isopropyl alcohol and the absorbance at 540 nm was read in a Synergy HT microplate reader with GEN 5 embedded software. In the calculation of cell viability percentage detected absorbance in wells with cells proliferated in untreated culture medium were considered 100% of living cells. […] Results of data analysis are expressed as the average±standard deviation (FIG. 5).

The test system of data set [3] is human embryonic kidney (HEK-293) cell line. As to the kind of experiment: MTT microdilution assay, HEK-293. Type of data set: cell-based.
Description: as §1, §2

Data set [4] concerns peripheral human lymphocytes. As to the kind of experiment: Lymphocyte proliferation and viability, trypan blue count. Type of data set: cell-based. The conditions noted are these: positive control 1.25 mg/mL, 48 h. An excerpt:
For the assay, a biological in vitro system using mononuclear cells culture from peripheral blood mononuclear cells—peripheral human lymphocytes was used. The system was selected because they form from 25 to 35% of leukocytes and they are the main immune response promoting cells since they recognize foreign antigens and activate cellular immune response mediators, causing proliferation or suppression phenomena before endogenous or exogenous stimuli. These cultures are widely used in research to evaluate the effects of various compounds (Marti-Centelles R. et al in J. Med Chem Eur, 2015, 103: 488). […] As a positive control the test with concanavalin A (Con A) was performed, which is a globular plant-origin protein that induces mitosis in lymphocytes causing clonal proliferation (Ganem and Martin Gonzalez Baez F A O. in Universo Diagnóstico, 2000, 1 (1):1). Assay with RPMI-1640 (medium without treatment) was performed as blank. […]
Optical light microscope with 40× objective was used. Cells were counted with Neubauer chamber using 0.05 mL suspension of each resuspended samples in 0.4 mL of PBS 1× and 0.05 mL of trypan blue. […] The results were analyzed by the variance analysis test (ANOVA) with SPSS version 16 and then Dunnet's test was applied to discern whether a difference between control and experimental treatments was present, taking values of p<0.05 as significant.

Data set [5] relates to rats with alloxan-induced diabetes. The experiment in a line: Alloxan-induced diabetes in rats. In kind it is in vivo. The procedure: (§3) In all tests carried out on laboratory animals the treatment was orally administered in a weight-dependent measure, through orogastric cannula, after conventional feed consumption for rodents and lagomorphs (Commission of the European Communities in Off. J. Eur. Comm (L 383 A), 1992, 35: 110), respectively.
(§4) Body weight was determined and recorded at the beginning and end of the experiment. Also in case of rabbits, clinical laboratory tests were performed before and after each test: blood biometry, blood chemistry and activity of transaminase enzymes: aspartate aminotransferase (AST), alanine aminotransferase (TGP) and transpeptidase gamma glutamyl transaminase (GGT). In rats, these parameters were determined only at the end of testing to prevent blood loss. Finally, we proceeded with the euthanasia step to animals applying a series of anesthetics and potassium chloride (KCl). Subsequently, an organ and fundamental tissue macroscopic examination and necropsy was conducted, primarily including heart, kidney, spleen, pancreas, lung, liver, ovaries and testicles, according to each case. Samples taken were sent to carry out a histopathological study.
(§5) In addition, the test in rats and rabbits with alloxan-induced diabetes was performed. […] Insulin glargine was administered subcutaneously at a dose of 0.7 U/kg in a single morning administration every 24 h.

Data set [6] has as its system rabbits with alloxan-induced diabetes. As to the kind of experiment: Alloxan-induced diabetes in rabbits. Type of data set: in vivo. The method, then: as §3, §4, §5
Setting [7] is: positive control, 1.95-2000 ppm.

Regarding “3, 5, 4-trihydroxy-trans-stilbene [resveratrol]”, in the data set on Artemia salina nauplii (62.6 ppm solution, 24 h), the “mortality of A. salina nauplii” value worked out at 38% and the “toxicity class (percent mortality scale)” value is on record as “moderate toxicity”. In addition, the “LC50 (lethal concentration to 50% nauplii)” value in the data set on Artemia salina nauplii (24 h) came out at 89.48 ppm. Also, the “toxicity class (percent mortality scale)” value in the data set on Artemia salina nauplii (from the LC50 concentration (89.48 ppm)) is “highly toxic (51-90% highly toxic)”.

Turning to `NCC(=O)O` [Glycine, glycine], in the data set with Artemia salina nauplii (24 h), the “toxicity expressed as percent mortality of A. salina nauplii” value is “toxicity free”.

As for `N=C(N)NCCC[C@H](N)C(=O)O` [arginine], in the data set on Artemia salina nauplii (24 h), the “toxicity expressed as percent mortality of A. salina nauplii” value is “toxicity free”.

For `OO` [hydrogen peroxide], the “DNA damage (genotoxicity)” value in data set [1] is reported as “much more rapid dsDNA diffusion”.

For Triton X-100, the LC50 in data set [2] (Vero, MTT, 24 h) is reported as 42.80±1.60 ppm; in data set [3] (HEK-293, MTT, 24 h) it was 764.10±21.93 ppm. Besides, the effect on absorbance/viability result in data set [2] (setting [7]) and in data set [3] (setting [7]) was “dose-depending effect” throughout.

Take concanavalin A: in data set [4], the “increase in the number of cells” value turned out to be 65% and the number of cells is on record as 9,101,667 cells/mL.

For insulin, the capillary glucose entry in data set [5] (diabetic rats treated only with insulin, up to 19 days) is “increase in the tendency for capillary glucose”. Besides, in data set [5] (diabetic rats, pure insulin, compared to other groups), the weight change result is “tendency of weight loss decrease is much more visible”. Also, the “macroscopic pancreatic alterations at autopsy” value in data set [5] (diabetic rats, single treatment only) is reported as “most severe pancreatic alterations”; in data set [6] (diabetic rabbits, single treatment only) it was “most severe pancreatic alterations”. Further, in data set [6] (diabetic female rabbit treated only with insulin), the kidney histology entry is listed as “early diabetic nephropathy”. In addition, the pancreas histology result in data set [6] (diabetic female rabbit treated only with the named treatment) is listed as “complete destruction of the organ”. In addition, the “kidney histology, tubular component” value in data set [6] (diabetic male rabbit treated only with insulin) was “changes by coagulative necrosis and nuclei pyknosis”.
